The values below are quoted from earlier work in patent US20260108532A1, “COMPOSITION FOR PREVENTING HEART DISEASES CAUSED BY PULMONARY HYPERTENSION AND TREATING HEART, AND FUNCTIONAL FORMULATION COMPRISING SAME” (CARESIDE CO., LTD., priority 2023, published 2026).

Data set [1] deals with dogs with subclinical (asymptomatic) CMVI. To be noted: at 35 days of administration, compared to placebo administered group.
The subject of data set [2] is dogs with subclinical myxomatous mitral valve disease (MMVD). To be noted: compared with placebo-administered group.
The conditions of data set [3]: potassium-sparing diuretic such as spironolactone.
For data set [4] the following is noted: dogs; long-term administration.

Take `COc1ccc(-c2nc3ccc(C4=NNC(=O)CC4C)cc3[nH]2)cc1` (stereo not shown) [pimobendan, Pimobendan]: the “LVIDd and LA/Ao on imaging diagnosis” value in data set [1] is recorded as “decreased”.
For `CC(=O)S[C@@H]1CC2=CC(=O)CC[C@]2(C)[C@H]2CC[C@@]3(C)[C@@H](CC[C@@]34CCC(=O)O4)[C@H]12` [spironolactone, Spironolactone], in data set [2], the “increase in heart size and cardiac biomarker concentration on cardiac ultrasound” value was “much smaller”. Moreover, in data set [3], the “diuretic effect as share of the efficacy of the loop diuretic” value was ~10%.
`Cc1cccc(Nc2ccncc2S(=O)(=O)NC(=O)NC(C)C)c1` [torsemide, Torsemide]: the ceiling effect result in data set [4] is “almost no ceiling effect”.
